Experimental data taken from the CheMixHub ionic liquid set.

Experiment: xn = mol fraction of the nth substance listed

CCCC[n+]1ccn(C)c1C.F[B-](F)(F)F + CCCCn1cc[n+](C)c1C.O=S(=O)([N-]S(=O)(=O)C(F)(F)F)C(F)(F)F
100 kPa
Details	electrical conductivity [S/m]
313.15 K, x2 = 0.5	0.313
318.15 K, x2 = 0.3	0.332
318.15 K, x2 = 0.5	0.388
318.15 K, x2 = 0.8	0.493
323.15 K, x2 = 0	0.202
323.15 K, x2 = 0.2	0.398
323.15 K, x2 = 0.3	0.415
323.15 K, x2 = 0.4	0.445
328.15 K, x2 = 0	0.26
333.15 K, x2 = 0.6	0.687
338.15 K, x2 = 0	0.447
338.15 K, x2 = 0.3	0.734
338.15 K, x2 = 0.4	0.774
338.15 K, x2 = 0.6	0.806
348.15 K, x2 = 0.4	1.04
348.15 K, x2 = 0.8	1.23
348.15 K, x2 = 0.9	1.4
353.15 K, x2 = 0.8	1.32
358.15 K, x2 = 0.1	1.33
358.15 K, x2 = 0.5	1.39
358.15 K, x2 = 0.7	1.42
358.15 K, x2 = 0.8	1.49
363.15 K, x2 = 0.5	1.56

CCCC[n+]1ccn(C)c1.O=[N+]([O-])[O-] + CCCO
101 kPa
Details	viscosity [mPa·s]
288.15 K, x2 = 0.121	176
288.15 K, x2 = 0.471	34.53
293.15 K, x2 = 0.673	11.32
298.15 K, x2 = 0.673	9.79
308.15 K, x2 = 0.471	16.82
313.15 K, x2 = 0.364	21.01
318.15 K, x2 = 0.471	12.54
318.15 K, x2 = 0.554	9.21
323.15 K, x2 = 0.121	31.91
323.15 K, x2 = 0.471	10.97
328.15 K, x2 = 0.471	9.68
328.15 K, x2 = 0.755	3.24
328.15 K, x2 = 0.857	2.14
333.15 K, x2 = 0.554	6.37

CC[n+]1ccn(CCOC)c1.N#C[S-] + CCCO
viscosity [mPa·s], 100 kPa
Details	x1 = 0.1001	x1 = 0.2	x1 = 0.3001	x1 = 0.4001	x1 = 0.5001	x1 = 0.5719	x1 = 0.701	x1 = 0.7997	x1 = 0.8987	x1 = 1
288.15 K	3.83	5.71	8.65	14.3	20	28.2	39.1	55.7	71.5	93.1
293.15 K	3.38	4.99	7.53	12.15	16.78	23.3	31.8	44.1	56.7	70.8
298.15 K	2.99	4.4	6.62	10.43	13.84	19.7	26.2	35.7	45.6	55.8
303.15 K	2.66	3.94	5.88	9.06	11.68	16.75	21.9	29.3	37.4	44.3
308.15 K	2.39	3.52	5.25	7.95	10.04	13.92	19.2	24.4	31.1	36
313.15 K	2.15	3.16	4.72	7.03	8.8	11.81	16.05	20.6	26	29.7
318.15 K	1.94	2.84	4.24	6.22	7.8	10.16	13.47	17.99	22	24.9
